Test results from PMC5881522, “Molecular Defects in Cardiac Myofilament Ca^2+-Regulation Due to Cardiomyopathy-Linked Mutations Can Be Reversed by Small Molecules Binding to Troponin” (Frontiers in Physiology, 2018).
Entries after “also recorded” stand apart in the source; their conditions may differ.

Columns and labels:
[1] = tested on: transgenic HCM mouse model; parameters: method as in Tadano et al., 2010; settings: ref Tadano et al., 2010; cited from earlier work
wild-type thin filaments = target: T1, wild-type thin filaments (Homo sapiens, UniProt P19429+P45379+P63316); assay: IVMA Ca2+-activation curves, wild-type thin filaments; assay type: biochemical; settings: ratio of EC50 in presence and absence of compound, phosphorylated and unphosphorylated states
T1 construct: isolate troponin from 100 mg of donor heart tissue; from tissue; host or cells: troponin: human donor heart; actin: rabbit skeletal muscle
Protocol: (§1) Thin filaments were reconstituted with 10 nM rabbit skeletal or mouse cardiac muscle α-actin (labeled with TRITC phalloidin), tropomyosin (40–60 nM), and troponin (60 nM) to study Ca^2+-regulation of filament motility by the quantitative in vitro motility assay (IVMA) (Fraser and Marston, [1995]; Messer et al., [2007]). Thin filament movement over a bed of immobilized rabbit fast skeletal muscle heavy meromyosin (100 μg/ml) was compared in paired motility cells, in which troponin varied by a single factor (mutation, phosphorylation state, or treatment with drug). The temperature was set to 29°C. Filament movement was recorded and analyzed as previously described (Marston et al., [1996]), yielding two parameters, the fraction of filaments moving and the speed of moving filaments. Only the fraction of filaments motile is used in this study.
The fraction motile was measured over a range of Ca^2+ concentrations to generate Ca^2+-activation curves. The data were fitted to the 4-variable Hill equation to yield a value for EC50 and nH. Most assays of the effect of compounds are single measurements.
EC50 for Ca2+ activation of phosphorylated and unphosphorylated thin filaments incorporating troponin from HCM and DCM tissue samples that are uncoupled was measured by in vitro motility assay in the presence and absence of 100 µM EGCG. […]

[2] = tested on: mutant-containing thin filaments; assay: IVMA Ca2+-activation curves, collected uncoupled mutant thin filaments; assay type: biochemical; settings: every uncoupling mutation tested; 100 μM EGCG
Protocol: as §1, with “Only the fraction of filaments motile is used in this study.” left out
(§2) The fraction motile was measured over a range of Ca^2+ concentrations to generate Ca^2+-activation curves. […]
We measured the Ca^2+ activation of contractility using an in vitro motility assay that measures the movement of reconstituted thin filaments over a bed of immobilized myosin heads. […] Thus, the effect of EGCG is independent of the mutation that induced uncoupling; in addition, both in man and cat, HCM cases were found where no mutation in sarcomeric genes was detected yet the thin filaments were uncoupled and they could also be re-coupled by EGCG (Bayliss et al., [2012]; Messer et al., [2016]). […]

[3] = tested on: isolated cardiomyocytes from ACTC E99K HCM transgenic mice; assay: Lusitropic effect of dobutamine in isolated cardiomyocytes; assay type: cell-based; settings: blunted in ACTC E99K mouse cardiomyocytes; preliminary experiments
Excerpt: The main effect of uncoupling of the modulation of Ca^2+ sensitivity by TnI phosphorylation is the loss of the lusitropic response to beta adrenergic stimulation, which is usually accompanied by blunting of the whole physiological adrenergic response.

[4] = target: T2, tropomyosin E180G mutant-containing thin filaments (Homo sapiens, UniProt P19429+P45379+P63316); assay: Single [Ca2+] in vitro motility assay screen for re-coupling; assay type: biochemical; settings: for Coupling Difference (Initial Screen E180G): 100 μM compound, 0.037 μM Ca2+, difference between motility (%) in phosphorylated and unphosphorylated thin filaments, TPM1 E180G, >10% = re-coupling; for EC50: dose-response of % motility difference at 0.037 μM Ca2+, Hill fit
T2 construct: isolate troponin from 100 mg of donor heart tissue; from tissue; host or cells: troponin: human donor heart; tropomyosin: baculovirus/Sf9 (gift); actin: rabbit fast-twitch skeletal muscle
Protocol: as §1
For drug screening, motility was measured with paired phosphorylated and unphosphorylated tropomyosin E180G mutant-containing thin filaments at a fixed 0.037 μM Ca^2+. Most assays were single measurements.
For the rapid screening of compounds, we devised a single Ca^2+ concentration assay. This is illustrated in Figures 2A,B for quercetin. The test system contains skeletal muscle actin, human sequence recombinant tropomyosin 1.1 containing the E180G HCM-associated mutation and human cardiac troponin from donor hearts in the phosphorylated and unphosphorylated form. At 0.037 μM Ca^2+ the filaments are about 40% motile irrespective of phosphorylation level whilst when quercetin is added the phosphorylated Ca^2+ activity curve shifts to the right and % motility at 0.037 μM Ca^2+ drops, whilst the unphosphorylated level is unchanged. We have set a difference between phosphorylated and unphosphorylated >10% as indicating re-coupling activity. This assay method can also be used to construct a dose-response curve as shown. We investigated compounds in 4 categories.
Figure 2 Single [Ca^2+] screen for re-coupling compounds. […] Solid lines, phosphorylated state; dotted lines, unphosphorylated state. Purple lines and points, E180G thin filaments; green lines and points, E180G thin filaments + Quercetin (B) Dose -response curve for quercetin recoupling activity measured at a constant concentration of 0.037 μM Ca^2+. INSET, kinetic analysis of dose response curve; difference between phosphorylated and unphosphorylated states is plotted against quercetin concentration. The Hill equation is fitted to the data, EC50 = 8 μM. (C,D) The effect of 100 μM drug treatment on the difference between % of motility of phosphorylated and unphosphorylated tropomyosin E180G mutant-containing thin filaments at 0.037 μM Ca^2+. (C) EGCG-related molecules (for structures 1–28 see Figure S1 and Table 1). (D) Silybin, related compounds and other HsP90 inhibitors and Ca^2+ desensitizers. The threshold for positive re-coupling was set at a 10% difference (dotted line).

[5] = target: T3, thin filaments containing TnC G159D (TNNC1 G159D, DCM) (Homo sapiens, UniProt P19429+P45379+P63316, G159D); assay: IVMA Ca2+-activation curves, TNNC1 G159D; assay type: biochemical; settings: phosphorylated and unphosphorylated TnC G159D thin filaments
T3 construct: TnC G159D mutant troponin was extracted from a mutant human heart sample; from tissue; host or cells: mutant human heart sample (troponin); rabbit skeletal muscle (actin)
Excerpt: Recombinant human sequence tropomyosin was a gift from Kristen Nowak and Elyshia MacNamara, University, Western Australia. Wild-type α-tropomyosin (Tpm1.1) and mutant E180G tropomyosin were expressed in a baculovirus/Sf9 system (Akkari et al., [2002]; Marston et al., [2013]). Skeletal muscle F-actin and myosin were isolated from rabbit fast-twitch skeletal muscle as previously described (Messer et al., [2007]). TnC G159D mutant troponin was extracted from a mutant human heart sample (Dyer et al., [2009]), E99K mutant cardiac actin was extracted from the E99K transgenic mouse heart (Song et al., [2013]).
Thin filaments were reconstituted with 10 nM rabbit skeletal or mouse cardiac muscle α-actin (labeled with TRITC phalloidin), tropomyosin (40–60 nM), and troponin (60 nM) to study Ca^2+-regulation of filament motility by the quantitative in vitro motility assay (IVMA) (Fraser and Marston, [1995]; Messer et al., [2007]). […] Filament movement was recorded and analyzed as previously described (Marston et al., [1996]), yielding two parameters, the fraction of filaments moving and the speed of moving filaments. […]
as §2

[6] = dose response of motile percentage, Figure S2B

| dose at which recoupling begins [4, 6] | dose of peak recoupling [4, 6] | Compound | impaired pump function due to diastolic dysfunction, in words [1] | effect on Ca2+-sensitivity of wild-type thin filaments, in words (wild-type thin filaments) | restoration of coupling in uncoupled thin filaments, in words [2] | lusitropic effect of dobutamine, in words [3] | Coupling Difference (Initial Screen E180G) [4] | EC50 [4] | effect on Ca2+-activation curves (desensitizer / re-coupler), in words [5] |
| --- | --- | --- | --- | --- | --- | --- | --- | --- | --- |
| – | – | O=C(O[C@@H]1Cc2c(O)cc(O)cc2O[C@@H]1c1cc(O)c(O)c(O)c1)c1cc(O)c(O)c(O)c1 [EGCG, epigallocatechin-3 gallate] | restored the impaired pump function | significant desensitizer | restore the coupling | anomalous | 23.0% | 59 µM | – |
| 50 µM | 100 µM | COc1cc([C@@H]2Oc3cc([C@H]4Oc5cc(O)cc(O)c5C(=O)[C@@H]4O)ccc3O[C@H]2CO)ccc1O [Silybin B] | – | – | – | restored | 55% | 39 µM | pure recoupler; also recorded: pure recoupling |
